Test results taken from US20200297617A1, “COMPOSITION FOR SKIN EXTERNAL USE FOR REDUCING WRINKLE AND COSMETIC PRODUCT” (Guangdong Bawei Biotechnology Co., Ltd., priority 2019, published 2020).

System: MMP-1
Test: Test 2: Analysis of inhibition of MMP-1 expression (MMP-1 ELISA, UVB-irradiated HS68 cells)
Type: cell-based, human
Details: UVB 30 mJ/cm2, compositions 1% mass concentration (RA 5 μM), 48 h, unirradiated control = 100, UV control = 194
Method: Test 2: Analysis of Inhibition of MMP-1 Expression
Human fibrocytes (HS68 cells, purchased from ATCC (Rockville, Md., USA)) were placed in a well plate at a density of 7.5×10^4 cells/well, and incubated in DMEM containing 10% FBS for 24 h, and then washed with PBS (phosphate buffer), followed by the addition of 0.5 ml of PBS therein, the resultant incubated cells were irradiated with ultraviolet rays (UVB30 mJ/cm2) to induce the expression of MMP-1. After the replacement with serum-free DMEM, the resultant product was treated with the compositions (having a mass concentration of 1%) of the examples and the contrast examples. The amount of supernatant obtained after 48 h incubation was determined using an MMP-1 ELISA kit. The human dermal fibroblasts HS68 were treated with ultraviolet rays to increase the expression of MMP-1, and then the resultant HS68 cells were treated with each sample to study whether the expression of MMP-1 was decreased. In the above, retinoic acid (RA, 5 μM, which is known to inhibit the expression of MMP-1) was used as a positive control group.

## CC1=C(/C=C/C(C)=C/C=C/C(C)=C/C(=O)O)C(C)(C)CCC1 [RA, retinoic acid]
  Effect on inhibition of MMP-1 expression: proportions relative to the control group (%): 118%
